Laboratory results from publication PMC11420944, “Targeted Degradation of Protein Kinase A via a Stapled Peptide PROTAC” (ACS Chemical Biology, 2024).

What was measured:
[1] = test system: cells
[2] = test system: phospho VASP; assay: VASP phosphorylation in forskolin-stimulated cells, Western blot; format: cell-based; conditions: MDA-MB-231 cells, 10 µM, 5 h, 50 µM forskolin 30 min, n = 3
Description: (§1) Next, we sought to assess whether StIP-TAC could also downregulate PKAc signaling in cells. For this experiment, cells were treated with forskolin to stimulate PKAc activity. Cells were either treated with DMSO, the small molecule PKAc inhibitor H89, StIP-TAC alone, or StIP-TAC with SAINT protein (Figure 4; Figure S7). […] (Figure 4C,D). A known PKA substrate, vasodilator-stimulated phosphoprotein (VASP),[42] was also probed for PKA-mediated phosphorylation (Figure S8).
Cell-based PROTAC activity assays. MDA-MB-231 cells were grown on 6-well tissue culture plates (BD Biosciences). Cells were serum-starved for 24 hours in serum-free RPMI with penicillin/streptomycin, glucose, and L-glutamine. StIP-TAC treatment was prepared with SAINT-Protein reagent according to manufacturer protocol (Synvolux) and added to cells at a final concentration of 10 µM for 5 hours. For phosphorylation studies, cells were additionally stimulated with 50 µM forskolin for 30 minutes before harvesting. For H89-treated cells, 50 μM H89 was added 30 minutes before stimulation with forskolin. For degradation studies, cells were co-treated with 10 μM MG-132 (Selleck Chemicals) alongside StIP-TAC and DMSO treatments for the duration of the 5-hour experiment. […] Cells were harvested in Laemmli sample buffer, boiled for 10 minutes and protein levels were analyzed via western blotting. […]
Biosciences). Western blot fluorescence detection was performed using a LI-COR Odyssey Fc imaging system. […]
Table S1. Peptide and PROTAC sequences, expected and observed masses determined via HPLC-MS. […]
Figure S8: StIP-TAC inhibits phosphorylation of the PKA substrate VASP. […] (B) Densitometric quantification of Western blots […]
reduction in phosphorylated VASP in cells treated with H89 and StIP-TAC with SAINT Protein reagent. Quantification was performed via Li-COR Image Studio. **p=0.010; ***p<0.001; ns, not significant as assessed by one-way ANOVA and Bonferroni’s multiple comparisons test. […]

[3] = target: T1, PKAc (Homo sapiens, UniProt P17612); assay: PKAc degradation in cells, Western blot densitometry; format: cell-based; conditions: MDA-MB-231 cells, n = 3
T1 construct: degrade native PKAc in cells, MDA-MB-231 cells were used; endogenous in cells; host or cells: MDA-MB-231 (ATCC HTB-26)
Description: To determine whether StIP-TAC could successfully degrade native PKAc in cells, MDA-MB-231 cells were used. […] We hypothesized this lack of a statistically significant effect may be a result of the compound’s relatively large molecular weight (∼3 kDa) and potentially limited cellular permeability, a common limitation of PROTAC molecules.[37]−[40] […] Based on this study, we aimed to improve delivery of our compound using SAINT Protein. […] To confirm that StIP-TAC-mediated degradation of PKAc resulted from recruitment of the proteasome, we incubated cells with 10 μM StIP-TAC alongside 10 μM proteasomal inhibitor MG-132 and subsequently screened for PKAc protein levels.
Cell-based PROTAC activity assays. MDA-MB-231 cells were grown on 6-well tissue culture plates (BD Biosciences). Cells were serum-starved for 24 hours in serum-free RPMI with penicillin/streptomycin, glucose, and L-glutamine. StIP-TAC treatment was prepared with SAINT-Protein reagent according to manufacturer protocol (Synvolux) and added to cells at a final concentration of 10 µM for 5 hours. For phosphorylation studies, cells were additionally stimulated with 50 µM forskolin for 30 minutes before harvesting. For H89-treated cells, 50 μM H89 was added 30 minutes before stimulation with forskolin. For degradation studies, cells were co-treated with 10 μM MG-132 (Selleck Chemicals) alongside StIP-TAC and DMSO treatments for the duration of the 5-hour experiment. For studies examining the NAE-mediated activation of CRL, cells were co-treated with 6 μM MLN4924 (Cayman Chemical) alongside StIP-TAC for the duration of the 5-hour experiment. For studies examining potential effects of StIP-3 on PKAc protein levels, cells were treated with 10 μM StIP-3 with or without SAINT-Protein reagent for 5 hours. Cells were harvested in Laemmli sample buffer, boiled for 10 minutes and protein levels were analyzed via western blotting. For control experiments, cells were incubated for 5 hours with an equivalent volume of DMSO or SAINT-Protein to the above studies, with or without forskolin stimulation.
To assess PKA degradation, anti-PKAc (1:1000, BD Biosciences) and anti-GAPDH (1:1000, Proteintech) primary antibodies were used. To assess PKA substrate phosphorylation, anti-phospho serine/threonine PKA substrate (1:1000, Cell Signaling Technology) and anti-tubulin (1:1000, Cell Signaling Technology) primary antibodies were used. To assess phosphorylation of VASP, anti-phospho VASP (1:1000, Cell […]
Signaling Technology) and anti-GAPDH (0.5 μg/mL, DSHB) primary antibodies were used. Incubation with primary antibodies was followed by incubation with anti-mouse […]
(§2) Biosciences). Western blot fluorescence detection was performed using a LI-COR Odyssey Fc imaging system. Data analysis was performed using GraphPad Prism […]
Table S1. Peptide and PROTAC sequences, expected and observed masses determined via HPLC-MS. Asterisks (*) represent residues of (S)-2-(4-pentenyl)- […]
(1 picture or pasted object on this page, not shown here)
Figure S3: Western blots for PKA degradation. Experiments were performed in triplicate (n=3) in low passage number MDA-MB-231 cells (ATCC HTB-26). Following t = 24 hour starvation in serum-free RPMI media, cells were treated for t = 5 hours with DMSO, SAINT-Protein Lipid reagent alone, 10 µM StIP-TAC, or 10 µM StIP-TAC incubated with SAINT-Protein Lipid reagent per manufacturer instructions. […]

[4] = test system: phospho serine/threonine PKA substrate; assay: PKA substrate phosphorylation in forskolin-stimulated cells, Western blot; format: cell-based; conditions: MDA-MB-231 cells, 10 µM, 5 h, 50 µM forskolin 30 min, n = 3
Description: as §1
Cell-based PROTAC activity assays. MDA-MB-231 cells were grown on 6-well tissue culture plates (BD Biosciences). Cells were serum-starved for 24 hours in serum-free RPMI with penicillin/streptomycin, glucose, and L-glutamine. StIP-TAC treatment was prepared with SAINT-Protein reagent according to manufacturer protocol (Synvolux) and added to cells at a final concentration of 10 µM for 5 hours. For phosphorylation studies, cells were additionally stimulated with 50 µM forskolin for 30 minutes before harvesting. For H89-treated cells, 50 μM H89 was added 30 minutes before stimulation […]
with forskolin. […]
Cells were harvested in Laemmli sample buffer, boiled for 10 minutes and protein levels were analyzed via western blotting. For control experiments, cells were incubated for 5 hours with an equivalent volume of DMSO or SAINT-Protein to the above studies, with or without forskolin stimulation.
To assess PKA degradation, anti-PKAc (1:1000, BD Biosciences) and anti-GAPDH (1:1000, Proteintech) primary antibodies were used. To assess PKA substrate phosphorylation, anti-phospho serine/threonine PKA substrate (1:1000, Cell Signaling […]
Incubation with primary antibodies was followed by incubation with anti-mouse […]
as §2
Figure S7: Western blots for PKA substrate phosphorylation. Experiments were performed in triplicate (n=3) in low passage number MDA-MB-231 cells (ATCC HTB-26). Following t = 24 hour starvation in serum-free RPMI media, cells were treated for t = 5 hours with DMSO, SAINT-Protein Lipid reagent alone, 10 µM StIP-TAC, or 10 µM StIP-TAC incubated with SAINT-Protein Lipid reagent per manufacturer instructions. For forskolin-stimulated treatments, cells were incubated for 30 minutes with 50 µM forskolin […]
prior to harvesting in Laemmli sample buffer. For H89-inhibited treatments, cells were incubated for 30 minutes prior to forskolin stimulation with 50 µM H89. Lysates were run via SDS-PAGE and Western blotting performed anti-phospho serine/threonine PKA substrate (1:1000, Cell Signaling Technology) and anti-tubulin (1:1000, Cell Signaling Technology) primary antibodies.

## Cereblon Ligand 1-PEG8-*TTY*DFIASGRTGRRNAI (sidechain bridge or staple) [StIP-TAC, StIP-3-derived stapled peptide conjugated to thalidomide-derived Cereblon Ligand 1 via a PEG-8 linker]
[1]
  cell permeability: no longer permeable
[2]; with SAINT-Protein
  VASP phosphorylation: significant inhibition
[2]; without SAINT Protein
  VASP phosphorylation: did not result in a significant reduction
[3]; 10 µM with SAINT Protein, plus 6 µM MLN4924, 5 h
  PKAc protein levels on co-treatment with NAE inhibitor MLN4924: rescued PKAc protein to baseline levels
[3]; 10 µM with SAINT Protein, plus 10 µM MG-132, 5 h
  PKAc protein levels on co-treatment with proteasomal inhibitor MG-132: rescued PKAc protein to baseline levels
[3]; 10 µM, 5 h, with SAINT Protein lipid reagent, normalized to GAPDH
  reduction of PKAc protein levels vs vehicle control: approximately 50%
[3]; 10 µM, 5 h, with or without 30 min 50 µM forskolin
  PKAc degradation, forskolin stimulated vs unstimulated: no significant difference
[3]; 10 µM, 5 h, without SAINT Protein lipid reagent, normalized to GAPDH
  PKAc protein levels vs vehicle control: no significant reduction
[4]; with SAINT Protein
  PKAc substrate phosphorylation: significant reduction in substrate phosphorylation to near basal levels
  phosphorylation of the approximately 55, 60, 80, and 100 kDa substrate bands: statistically significant reduction
[4]; without SAINT Protein
  PKAc substrate phosphorylation: did not yield a significant reduction
